pIC50: −log10 of the molar value. Read-outs that look alike come from different tables or passages of the source.
How the values were obtained:
human recombinant HDAC1 = biological target: T1, human recombinant HDAC1 (Homo sapiens, UniProt Q13547); assay: HDAC1 enzyme activity inhibition (HDAC Fluorimetric Drug Discovery Kit); format: biochemical; conditions: read-out: HDAC1
T1 construct: purchased Enzo Life Science, Inc. BML-SE456
Method in brief: (§1)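 Fluorimetric deacetylase read-out. 5-fold compound dilutions; […] enzyme, 10 μM substrate; 30° C, 60 min; developer 30 min.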

human recombinant HDAC6 = biological target: T2, human recombinant HDAC6 (Homo sapiens, UniProt Q9UBN7); assay: HDAC6 enzyme activity inhibition (HDAC Fluorimetric Drug Discovery Kit); format: biochemical
T2 construct: purchased Calbiochem Inc. 382180
T2 sequence (Q9UBN7 1-1215): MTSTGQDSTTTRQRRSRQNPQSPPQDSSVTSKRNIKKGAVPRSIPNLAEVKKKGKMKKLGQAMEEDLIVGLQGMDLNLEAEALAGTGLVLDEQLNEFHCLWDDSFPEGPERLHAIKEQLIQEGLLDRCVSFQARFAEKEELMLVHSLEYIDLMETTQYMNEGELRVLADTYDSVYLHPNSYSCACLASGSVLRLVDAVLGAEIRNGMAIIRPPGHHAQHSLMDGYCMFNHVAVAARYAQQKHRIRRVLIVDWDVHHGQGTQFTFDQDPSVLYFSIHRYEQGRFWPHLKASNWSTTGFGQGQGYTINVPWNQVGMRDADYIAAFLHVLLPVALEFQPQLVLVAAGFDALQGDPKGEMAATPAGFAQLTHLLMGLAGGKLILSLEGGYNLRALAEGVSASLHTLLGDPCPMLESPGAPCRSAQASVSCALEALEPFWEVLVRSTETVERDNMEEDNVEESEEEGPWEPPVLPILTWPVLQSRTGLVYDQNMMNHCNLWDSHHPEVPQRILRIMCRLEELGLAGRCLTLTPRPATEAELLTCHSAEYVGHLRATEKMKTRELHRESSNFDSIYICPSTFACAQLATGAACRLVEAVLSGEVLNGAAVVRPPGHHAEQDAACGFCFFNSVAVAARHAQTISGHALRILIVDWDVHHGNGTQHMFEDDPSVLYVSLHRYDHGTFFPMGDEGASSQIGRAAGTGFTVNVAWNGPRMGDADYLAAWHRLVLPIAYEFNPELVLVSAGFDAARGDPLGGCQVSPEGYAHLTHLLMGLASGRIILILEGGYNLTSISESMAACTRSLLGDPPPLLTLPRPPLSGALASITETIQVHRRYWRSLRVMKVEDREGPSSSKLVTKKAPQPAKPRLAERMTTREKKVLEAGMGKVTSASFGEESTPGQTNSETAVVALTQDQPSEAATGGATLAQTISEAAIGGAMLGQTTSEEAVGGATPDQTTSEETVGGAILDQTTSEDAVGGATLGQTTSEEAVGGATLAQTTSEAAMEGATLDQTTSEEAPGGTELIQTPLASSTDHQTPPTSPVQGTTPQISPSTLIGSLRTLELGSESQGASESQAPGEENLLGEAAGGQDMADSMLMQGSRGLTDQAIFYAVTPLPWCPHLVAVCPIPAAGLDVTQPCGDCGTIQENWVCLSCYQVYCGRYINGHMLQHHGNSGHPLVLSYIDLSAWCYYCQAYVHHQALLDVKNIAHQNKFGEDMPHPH
Method in brief: as §1

[1] = human recombinant HDAC1, IC50 calculated with GraphPad Prism
[2] = human recombinant HDAC6, IC50 calculated with GraphPad Prism
[3] = human recombinant HDAC1, Fluor de Lys substrate, 30° C. 60 minutes
[4] = human recombinant HDAC6, same protocol as HDAC1

T1 sequence (Q13547 whole entry): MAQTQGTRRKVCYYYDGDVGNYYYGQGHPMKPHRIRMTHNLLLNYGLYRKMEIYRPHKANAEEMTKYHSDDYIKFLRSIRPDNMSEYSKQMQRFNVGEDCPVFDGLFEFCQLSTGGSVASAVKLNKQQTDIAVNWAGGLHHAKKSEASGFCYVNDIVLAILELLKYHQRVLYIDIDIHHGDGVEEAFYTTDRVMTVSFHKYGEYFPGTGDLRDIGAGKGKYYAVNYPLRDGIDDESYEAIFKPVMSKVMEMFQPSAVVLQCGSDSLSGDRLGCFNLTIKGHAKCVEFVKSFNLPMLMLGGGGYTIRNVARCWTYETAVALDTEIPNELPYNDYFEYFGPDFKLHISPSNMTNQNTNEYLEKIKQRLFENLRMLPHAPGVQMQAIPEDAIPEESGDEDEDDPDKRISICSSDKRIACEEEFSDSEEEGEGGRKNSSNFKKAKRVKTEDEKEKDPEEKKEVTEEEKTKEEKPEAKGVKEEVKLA

Fc1cc(-c2nnc(C(F)F)o2)ccc1Cn1cc(C2(F)COC2)nn1 [Compound 4282, 2-(difluoromethyl)-5-(3-fluoro-4-((4-(3-fluorooxetan-3-yl)-1H-1,2,3-triazol-1-yl)methyl)phenyl)-1,3,4-oxadiazole]
pIC50 (human recombinant HDAC1; [1]): < 4.30
HDAC6 selectivity (fold) (human recombinant HDAC6; HDAC1 IC50 / HDAC6 IC50): 209 fold
pIC50 (human recombinant HDAC6; [2]): 6.62

Fc1cc(-c2nnc(C(F)F)o2)ccc1Cn1cc(-c2ccc(CN3CCCCC3)cc2)nn1 [Compound 4610, 2-(difluoromethyl)-5-(3-fluoro-4-((4-(4-(piperidin-1-ylmethyl)phenyl)-1H-1,2,3-triazol-1-yl)methyl)phenyl)-1,3,4-oxadiazole]
pIC50 (human recombinant HDAC1; [3]): < 4.30
HDAC6 selectivity (fold) (human recombinant HDAC6; HDAC6 over HDAC1): 3496 fold
pIC50 (human recombinant HDAC6; [4]): 7.84

Fc1cc(-c2nnc(C(F)F)o2)ccc1Cn1cc(-c2ccc(CN3CC[C@H](F)C3)s2)nn1 [Compound 17916]
pIC50 (human recombinant HDAC1; [3]): < 4.30
HDAC6 selectivity (fold) (human recombinant HDAC6; HDAC6 over HDAC1): 556 fold
pIC50 (human recombinant HDAC6; [4]): 7.05

CN1CCC(Nc2ccc(F)c(-c3cn(Cc4ccc(-c5nnc(C(F)F)o5)cc4F)nn3)c2)CC1 [Compound 4435, N-(3-(1-(4-(5-(difluoromethyl)-1,3,4-oxadiazol-2-yl)-2-fluorobenzyl)-1H-1,2,3-triazol-4-yl)-4-fluorophenyl)-1-methylpiperidin-4-amine]
pIC50 (human recombinant HDAC1; [1]): < 4.30
HDAC6 selectivity (fold) (human recombinant HDAC6; HDAC1 IC50 / HDAC6 IC50): 1677 fold
pIC50 (human recombinant HDAC6; [2]): 7.53

CC(C)N1CCN(c2cc(-c3cn(Cc4ccc(-c5nnc(C(F)F)o5)cc4F)nn3)ccc2F)CC1 [Compound 4425]
pIC50 (human recombinant HDAC1; [1]): < 4.30
HDAC6 selectivity (fold) (human recombinant HDAC6; HDAC1 IC50 / HDAC6 IC50): 431 fold
pIC50 (human recombinant HDAC6; [2]): 6.94

FC(F)c1nnc(-c2ccc(Cn3cc(-c4ccc5c(c4)CNC5)nn3)nc2)o1 [Compound 4539, 2-(difluoromethyl)-5-(6-((4-(isoindolin-5-yl)-1H-1,2,3-triazol-1-yl)methyl)pyridin-3-yl)-1,3,4-oxadiazole]
pIC50 (human recombinant HDAC1; [3]): < 4.30
HDAC6 selectivity (fold) (human recombinant HDAC6; HDAC6 over HDAC1): 776 fold
pIC50 (human recombinant HDAC6; [4]): 7.19

Fc1cc(-c2nnc(C(F)F)o2)ccc1Cn1cc(-c2ccccc2CN2CCC2)nn1 [Compound 4583, 2-(4-((4-(2-(azetidin-1-ylmethyl)phenyl)-1H-1,2,3-triazol-1-yl)methyl)-3-fluorophenyl)-5-(difluoromethyl)-1,3,4-oxadiazole]
pIC50 (human recombinant HDAC1; [3]): < 4.30
HDAC6 selectivity (fold) (human recombinant HDAC6; HDAC6 over HDAC1): 138 fold
pIC50 (human recombinant HDAC6; [4]): 6.44

Fc1cc(-c2nnc(C(F)F)o2)ccc1Cn1cc(-c2cccc(C3CCN(C4COC4)CC3)c2)nn1 [Compound 4293, 2-(difluoromethyl)-5-(3-fluoro-4-((4-(3-(1-(oxetan-3-yl)piperidin-4-yl)phenyl)-1H-1,2,3-triazol-1-yl)methyl)phenyl)-1,3,4-oxadiazole]
pIC50 (human recombinant HDAC1; [1]): < 4.30
HDAC6 selectivity (fold) (human recombinant HDAC6; HDAC1 IC50 / HDAC6 IC50): 618 fold
pIC50 (human recombinant HDAC6; [2]): 7.09

Fc1ccc(-c2cn(Cc3ccc(-c4nnc(C(F)F)o4)cc3F)nn2)cc1F [Compound 3662, 2-(difluoromethyl)-5-(4-((4-(3,4-difluorophenyl)-1H-1,2,3-triazol-1-yl)methyl)-3-fluorophenyl)-1,3,4-oxadiazole]
pIC50 (human recombinant HDAC1; [1]): < 4.30
HDAC6 selectivity (fold) (human recombinant HDAC6; HDAC1 IC50 / HDAC6 IC50): 289 fold
pIC50 (human recombinant HDAC6; [2]): 6.76

CC(C)N1CCN(Cc2ccc(-c3cn(Cc4ccc(-c5nnc(C(F)F)o5)cc4F)nn3)cc2)CC1 [Compound 4475, 2-(difluoromethyl)-5-(3-fluoro-4-((4-(4-((4-isopropylpiperazin-1-yl)methyl)phenyl)-1H-1,2,3-triazol-1-yl)methyl)phenyl)-1,3,4-oxadiazole]
pIC50 (human recombinant HDAC1; [1]): < 4.30
HDAC6 selectivity (fold) (human recombinant HDAC6; HDAC1 IC50 / HDAC6 IC50): 1269 fold
pIC50 (human recombinant HDAC6; [2]): 7.40

Fc1cc(-c2nnc(C(F)F)o2)cnc1Cn1cc(-c2ccc(CN3CCCC3)cc2Cl)nn1 [Compound 19100, 2-(6-((4-(2-chloro-4-(pyrrolidin-1-ylmethyl)phenyl)-1H-1,2,3-triazol-1-yl)methyl)-5-fluoropyridin-3-yl)-5-(difluoromethyl)-1,3,4-oxadiazole]
pIC50 (human recombinant HDAC1; [3]): < 4.30
HDAC6 selectivity (fold) (human recombinant HDAC6; HDAC6 over HDAC1): 868 fold
pIC50 (human recombinant HDAC6; [4]): 7.24

Fc1cc(-c2nnc(C(F)F)o2)ccc1Cn1cc(-c2cccc(N3CCN(CC4CC(F)(F)C4)CC3)c2F)nn1 [Compound 4603, 2-(4-((4-(3-(4-((3,3-difluorocyclobutyl)methyl)piperazin-1-yl)-2-fluorophenyl)-1H-1,2,3-triazol-1-yl)methyl)-3-fluorophenyl)-5-(difluoromethyl)-1,3,4-oxadiazole]
pIC50 (human recombinant HDAC1; [3]): < 4.30
HDAC6 selectivity (fold) (human recombinant HDAC6; HDAC6 over HDAC1): 744 fold
pIC50 (human recombinant HDAC6; [4]): 7.17

CN1CC(N2CCC(c3cccc(-c4cn(Cc5ncc(-c6nnc(C(F)F)o6)cc5F)nn4)c3)CC2)C1 [Compound 18877, 2-(difluoromethyl)-5-(5-fluoro-6-((4-(3-(1-(1-methylazetidin-3-yl)piperidin-4-yl)phenyl)-1H-1,2,3-triazol-1-yl)methyl)pyridin-3-yl)-1,3,4-oxadiazole]
pIC50 (human recombinant HDAC1; [3]): < 4.30
HDAC6 selectivity (fold) (human recombinant HDAC6; HDAC6 over HDAC1): 367 fold
pIC50 (human recombinant HDAC6; [4]): 6.87

CC(C)(F)CN1CCC(c2cccc(-c3cn(Cc4ccc(-c5nnc(C(F)F)o5)cc4F)nn3)c2)CC1 [Compound 4349, 2-(difluoromethyl)-5-(3-fluoro-4-((4-(3-(1-(2-fluoro-2-methylpropyl)piperidin-4-yl)phenyl)-1H-1,2,3-triazol-1-yl)methyl)phenyl)-1,3,4-oxadiazole]
pIC50 (human recombinant HDAC1; [1]): < 4.30
HDAC6 selectivity (fold) (human recombinant HDAC6; HDAC1 IC50 / HDAC6 IC50): 137 fold
pIC50 (human recombinant HDAC6; [2]): 6.44

CN(C)CC(=O)Nc1cccc(-c2cn(Cc3ccc(-c4nnc(C(F)F)o4)cc3)nn2)c1 [Compound 4329, N-(3-(1-(4-(5-(difluoromethyl)-1,3,4-oxadiazol-2-yl)benzyl)-1H-1,2,3-triazol-4-yl)phenyl)-2-(dimethylamino)acetamide]
pIC50 (human recombinant HDAC1; [1]): < 4.30
HDAC6 selectivity (fold) (human recombinant HDAC6; HDAC1 IC50 / HDAC6 IC50): 815 fold
pIC50 (human recombinant HDAC6; [2]): 7.21

FC(F)c1nnc(-c2ccc(Cn3cc(-c4cccc(N5CCOCC5)c4)nn3)cc2)o1 [Compound 4338, 4-(3-(1-(4-(5-(difluoromethyl)-1,3,4-oxadiazol-2-yl)benzyl)-1H-1,2,3-triazol-4-yl)phenyl)morpholine]
pIC50 (human recombinant HDAC1; [1]): < 4.30
HDAC6 selectivity (fold) (human recombinant HDAC6; HDAC1 IC50 / HDAC6 IC50): 765 fold
pIC50 (human recombinant HDAC6; [2]): 7.19

Fc1cc(-c2nnc(C(F)F)o2)ccc1Cn1cc(-c2cccc3c2OC(F)(F)O3)nn1 [Compound 18470, 2-(4-((4-(2,2-difluorobenzo[d][1,3]dioxol-4-yl)-1H-1,2,3-triazol-1-yl)methyl)-3-fluorophenyl)-5-(difluoromethyl)-1,3,4-oxadiazole]
pIC50 (human recombinant HDAC1; [3]): < 4.30
HDAC6 selectivity (fold) (human recombinant HDAC6; HDAC6 over HDAC1): 506 fold
pIC50 (human recombinant HDAC6; [4]): 7.01

CC1CCN(Cc2cc(Cl)cc(-c3cn(Cc4ncc(-c5nnc(C(F)F)o5)cc4F)nn3)c2)CC1 [Compound 19093, 2-(6-((4-(3-chloro-5-((4-methylpiperidin-1-yl)methyl)phenyl)-1H-1,2,3-triazol-1-yl)methyl)-5-fluoropyridin-3-yl)-5-(difluoromethyl)-1,3,4-oxadiazole]
pIC50 (human recombinant HDAC1; [3]): < 4.30
HDAC6 selectivity (fold) (human recombinant HDAC6; HDAC6 over HDAC1): 211 fold
pIC50 (human recombinant HDAC6; [4]): 6.63

CN(C)C(C)(C)C(=O)Nc1cccc(-c2cn(Cc3ccc(-c4nnc(C(F)F)o4)cn3)nn2)c1 [Compound 4231, N-(3-(1-((5-(5-(difluoromethyl)-1,3,4-oxadiazol-2-yl)pyridin-2-yl)methyl)-1H-1,2,3-triazol-4-yl)phenyl)-2-(dimethylamino)-2-methylpropanamide]
pIC50 (human recombinant HDAC1; [1]): < 4.30
HDAC6 selectivity (fold) (human recombinant HDAC6; HDAC1 IC50 / HDAC6 IC50): 914 fold
pIC50 (human recombinant HDAC6; [2]): 7.26

FC(F)c1nnc(-c2ccc(Cn3cc(-c4ccco4)nn3)nc2)o1 [Compound 3861, 2-(difluoromethyl)-5-(6-((4-(furan-2-yl)-1H-1,2,3-triazol-1-yl)methyl)pyridin-3-yl)-1,3,4-oxadiazole]
pIC50 (human recombinant HDAC1; [1]): < 4.30
HDAC6 selectivity (fold) (human recombinant HDAC6; HDAC1 IC50 / HDAC6 IC50): 922 fold
pIC50 (human recombinant HDAC6; [2]): 7.27

Fc1cc(-c2nnc(C(F)F)o2)ccc1Cn1cc(-c2cn[nH]c2)nn1 [Compound 17261, 2-(4-((4-(1H-pyrazol-4-yl)-1H-1,2,3-triazol-1-yl)methyl)-3-fluorophenyl)-5-(difluoromethyl)-1,3,4-oxadiazole]
pIC50 (human recombinant HDAC1; [3]): < 4.30
HDAC6 selectivity (fold) (human recombinant HDAC6; HDAC6 over HDAC1): 1012 fold
pIC50 (human recombinant HDAC6; [4]): 7.31
